# Laboratory results as given in patent US20240226120A1 (priority 2020, published 2024).
# Several values for one entry are separate records, joined by “and”; a condition that tells them apart may be missing. Equal entries are not always repeated.
# What was measured:
# [1] = test system: HEK293 (human embryonic kidney) cells expressing the viral Orf8 protein; type: cell-based
# [2] = test system: HEK293 (human embryonic kidney) cells expressing the viral Orf10 protein; type: cell-based
# [3] = test system: HEK293 (human embryonic kidney) cells expressing the viral M protein; experiment: BrdU incorporation colorimetric ELISA, cells expressing viral M protein; type: cell-based; conditions: 1 μM, 24 hours, not normalized to cell number (FIG. 5)
# [4] = test system: HEK293 (human embryonic kidney) cells transfected with control plasmid pCMV-3Tag-3A; experiment: Apoptosis assay (pSIVA early, propidium iodide late), control plasmid; type: cell-based; conditions: 24 hours, normalized to crystal violet
# Text: (§1) 2. […] These transfections are done in duplicate.
# [5] = test system: HEK293 (human embryonic kidney) cells transfected with plasmid expressing viral protein ORF8; experiment: Apoptosis assay (pSIVA early, propidium iodide late), ORF8; type: cell-based; conditions: ORF8, 24 hours
# Text: as §1
# [6] = test system: HEK293 (human embryonic kidney) cells transfected with plasmid expressing M protein; experiment: Apoptosis assay (pSIVA early, propidium iodide late), M protein; type: cell-based
# Text: as §1
# [7] = test system: interferon and interferon-induced antiviral effector gene expression in cells expressing M-protein; experiment: qPCR of interferons and effector gene expression, M-protein; type: cell-based, human
# Type I interferons = experiment: Interferon types after CBD treatment, summary over transfections; type: cell-based, human; conditions: summary statement, transfection not specified
# [8] = test system: metabolically dysregulated cells; experiment: Inhouse work on cell death, metabolically dysregulated cells (unpublished data); type: cell-based
# normal cells = experiment: Inhouse work on cell death, normal cells (unpublished data); type: cell-based
# HT22 hippocampal neurons = conditions: 5 μM CBD, oxygen-glucose deprivation; cited from earlier work
# CB2 receptor = CB2 receptor (Homo sapiens, UniProt P34972); conditions: cited from earlier work
# Sequence of CB2 receptor (P34972 whole entry): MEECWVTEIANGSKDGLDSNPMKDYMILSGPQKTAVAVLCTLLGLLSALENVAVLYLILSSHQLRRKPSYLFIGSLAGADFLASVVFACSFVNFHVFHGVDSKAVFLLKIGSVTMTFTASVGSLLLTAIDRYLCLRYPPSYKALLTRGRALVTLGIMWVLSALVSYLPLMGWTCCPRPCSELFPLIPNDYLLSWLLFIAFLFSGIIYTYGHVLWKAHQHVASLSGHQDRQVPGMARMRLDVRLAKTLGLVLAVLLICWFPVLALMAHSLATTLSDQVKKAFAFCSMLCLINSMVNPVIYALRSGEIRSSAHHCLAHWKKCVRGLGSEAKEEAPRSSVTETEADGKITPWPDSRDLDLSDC
# [9] = test system: TNFα, IL-6, IL-4, IL-13, IL-10, and IL-5; conditions: asthma induced animals treated with Cannabidiol vs asthma induced animals; cited from earlier work
compound,measurement,setting,value
"C=C(C)[C@@H]1CCC(C)=C[C@H]1c1c(O)cc(CCCCC)cc1O [Cannabidiol, 2-[(1R,6R)-3-Methyl-6-(1-methylethenyl)-2-cyclohexen-1-yl]-5-pentyl-1,3-benzenediol]",mean BrdU incorporation lower than in cells expressing Orf8 but untreated with cannabinoids,[1],37.28% and 43.52%
same,mean BrdU incorporation lower than in cells expressing Orf10 but untreated with cannabinoids,[2],30.44%
same,mean BrdU incorporation lower than in cells expressing M protein but untreated with cannabinoids,[3],37.28%
same,early apoptosis (pSIVA),[4],do not show any significant increase
same,late apoptosis (propidium iodide),[4],do not show any significant increase
same,early apoptosis (pSIVA),[4]; listed as CBD,did not alter
same,late apoptosis (propidium iodide),[4]; listed as CBD,did not alter
same,early apoptosis (pSIVA),[5]; vs vehicle-treated ORF8 cells and vs Cannabidiol-treated control vector cells (FIG. 8A),significant increases
same,late apoptosis (propidium iodide),[5]; vs vehicle-treated ORF8 cells and vs Cannabidiol-treated control vector cells (FIG. 8B),significant increases
same,early apoptosis (pSIVA),[6]; relative to M protein cells treated only with vehicle (FIG. 15A),significantly elevated
same,late apoptosis (propidium iodide),[6]; relative to M protein cells treated only with vehicle (FIG. 15B),significantly elevated
same,OAS1 gene expression,"[7]; M protein, 1 μM CBD vs vehicle-treated cells, 24 hours (FIG. 18)",significantly greater expression
same,INF-lambda 1 expression,"[7]; M-protein, 1 μM CBD, 24 hours (FIG. 16A)",induced
same,INF-lambda 2/3 expression,"[7]; M-protein, 1 μM CBD, 24 hours (FIG. 16B)",induced
same,IFIT1 augmentation compared with cells expressing control plasmid,"[7]; M-protein, 1 μM CBD, 24 hours (FIG. 19)",lower
same,Mx1 gene expression,"[7]; M-protein, 1 μM CBD, 24 hours, vs Cannabidiol-treated cells expressing only control plasmid (FIG. 17)",significantly greater extent
same,change in Type I interferons as a result of CBD treatment,Type I interferons,not much change
same,cell death,[8],decreases cell death
same,cell death,normal cells,no effect
same,apoptosis and oxidative stress,HT22 hippocampal neurons,significantly attenuated
same,binding to CB2 receptor,CB2 receptor,very weakly
same,"levels of all cytokines (TNFα, IL-6, IL-4, IL-13, IL-10, IL-5)",[9],reduced significantly
CCCc1cc(O)c2c(c1)OC(C)(C)[C@@H]1CC=C(C)C[C@@H]21 [delta 8-tetrahydrocannabivarin],BrdU incorporation relative to untreated cells,[2],less reduction
